# Measurements: PubChem BioAssay AID296 (DTP/NCI, 2004)
# Values joined by “and” are separate entries in the source; they are usually repeats but may differ in a detail not shown here. Equal entries are not always repeated. Results filed as inconclusive are left out. *1 amine or outer side, *2 acyl side, *3 side chain or, on linkers, in order; H or OH if unused. Where a SMILES comes first, the peptide text is derived from it. [ ]: non-standard residue; d: D form. The star is where a group is joined. X2 = CCC(=O)CC1CC(C)CC(C(=O)[*:2])N1[*:1]; X1 = CCCCCCCCC(C)C(=O)*; Aib = CC(C)(N)C(=O)O; X3 = CC(CN(C)CCO)N*
# Tested on: MX-1 breast xenograft, nude mice, tumor weight T/C
# Assay: NCI In Vivo Anticancer Drug Screen. Data for tumor model Human Mammary Carcinoma MX-1 Xenograft (intrarenal inoculation) in NU/NU Swiss (nude) mice
# Details: endpoint: mean tumor weight change, higher = larger tumour
# In short: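 Compound dosed to mice with transplantable tumor; vehicle group as control. Endpoint survival or tumour size, reported as T/C.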
smiles,measurement,setting,value
Nc1ccc(Cl)cc1N,T/C,"dose: 450.0 mg/kg/injection, schedule: Q04DX003 (sc), vehicle: saline with Tween-80",116 % of control
same,T/C,"dose: 900.0 mg/kg/injection, schedule: Q04DX003 (sc), vehicle: saline with Tween-80",73 % of control
same,T/C,"dose: 1800.0 mg/kg/injection, schedule: Q04DX003 (sc), vehicle: saline with Tween-80",71 % of control
CN(CO)c1nc(N(C)CO)nc(N(C)CO)n1,T/C,"dose: 12.5 mg/kg/injection, schedule: Q01DX010 (sc), vehicle: saline",157 % of control
same,T/C,"dose: 25.0 mg/kg/injection, schedule: Q01DX010 (sc), vehicle: saline",55 % of control
same,T/C,"dose: 50.0 mg/kg/injection, schedule: Q01DX010 (sc), vehicle: saline",4 % of control
same,T/C,"dose: 100.0 mg/kg/injection, schedule: Q01DX010 (sc), vehicle: saline",-81 % of control
same,T/C,"dose: 100.0 mg/kg/injection, schedule: Q01DX010 (sc), vehicle: suspension in saline",-100 % of control
same,T/C,"dose: 150.0 mg/kg/injection, schedule: Q04DX003 (sc), vehicle: saline",-80 % of control and -77 % of control and -57 % of control
same,T/C,"dose: 200.0 mg/kg/injection, schedule: Q01DX010 (sc), vehicle: suspension in saline",-100 % of control
same,T/C,"dose: 300.0 mg/kg/injection, schedule: Q04DX003 (sc), vehicle: saline",-85 % of control and -84 % of control
same,T/C,"dose: 300.0 mg/kg/injection, schedule: Q04DX003 (sc), vehicle: suspension in saline",-87 % of control and -100 % of control
[CH3][Sn]([CH3])([Cl])[S]CCN,T/C,"dose: 18.75 mg/kg/injection, schedule: Q04DX003 (sc), vehicle: suspension in saline",77 % of control
same,T/C,"dose: 75.0 mg/kg/injection, schedule: Q04DX003 (sc), vehicle: suspension in saline",157 % of control
O=C(O)c1cc(Cc2ccc(O)c(C(=O)O)c2)ccc1O (tested in a mixture with another compound),T/C,"dose: 75.0 mg/kg/injection, schedule: Q04DX003 (sc), vehicle: Klucel (hydroxypropylcellulose) (HPC)",63 % of control
same,T/C,"dose: 150.0 mg/kg/injection, schedule: Q04DX003 (sc), vehicle: Klucel (hydroxypropylcellulose) (HPC)",55 % of control
same,T/C,"dose: 300.0 mg/kg/injection, schedule: Q04DX003 (sc), vehicle: Klucel (hydroxypropylcellulose) (HPC)",93 % of control
same,T/C,"dose: 600.0 mg/kg/injection, schedule: Q04DX003 (sc), vehicle: Klucel (hydroxypropylcellulose) (HPC)",76 % of control
COc1cccc2c1C(=O)c1c(O)c3c(c(O)c1C2=O)C[C@@](O)(C(=O)CO)C[C@@H]3OC1CC(N)CC(C)O1 (stereo partly drawn),T/C,"dose: 0.19 mg/kg/injection, schedule: Q01DX010 (sc), vehicle: water",43 % of control
same,T/C,"dose: 0.37 mg/kg/injection, schedule: Q01DX010 (sc), vehicle: water",51 % of control
same,T/C,"dose: 0.75 mg/kg/injection, schedule: Q01DX010 (sc), vehicle: water",61 % of control
same,T/C,"dose: 1.5 mg/kg/injection, schedule: Q01DX010 (sc), vehicle: water",59 % of control
CCCCCCCCC(C)C(=O)N1CCCC1C(=O)N1C(CC(=O)CC)CC(C)CC1C(=O)NC(C)C(=O)NC(C)(C)C(=O)NC(C)(C)C(=O)NC(C(=O)NC(C)C(=O)NC(C)(C)C(=O)NC(C)(C)C(=O)NC(C)CN(C)CCO)C(C)CC (stereo not drawn) (X1-P[X2]A[Aib][Aib]IA[Aib][Aib]-X3; configuration not given here),T/C,"dose: 1.25 mg/kg/injection, schedule: Q04DX003 (sc), vehicle: Klucel (hydroxypropylcellulose) (HPC)",105 % of control
same,T/C,"dose: 2.5 mg/kg/injection, schedule: Q04DX003 (sc), vehicle: Klucel (hydroxypropylcellulose) (HPC)",113 % of control
CCCCCCCCCCCCCCC/C([O-])=N/[N+](C)(C)CC(C)O (stereo not drawn),T/C,"dose: 200.0 mg/kg/injection, schedule: Q04DX003 (sc), vehicle: Klucel (hydroxypropylcellulose) (HPC)",95 % of control
same,T/C,"dose: 800.0 mg/kg/injection, schedule: Q04DX003 (sc), vehicle: Klucel (hydroxypropylcellulose) (HPC)",100 % of control
same,T/C,"dose: 1600.0 mg/kg/injection, schedule: Q04DX003 (sc), vehicle: Klucel (hydroxypropylcellulose) (HPC)",91 % of control
same,T/C,"dose: 2400.0 mg/kg/injection, schedule: Q04DX003 (sc), vehicle: Klucel (hydroxypropylcellulose) (HPC)",63 % of control
CCOC(=O)N(C)N=NC,T/C,"dose: 15.0 mg/kg/injection, schedule: Q04DX003 (ip), vehicle: saline",97 % of control
same,T/C,"dose: 30.0 mg/kg/injection, schedule: Q04DX003 (ip), vehicle: saline",95 % of control
same,T/C,"dose: 60.0 mg/kg/injection, schedule: Q04DX003 (ip), vehicle: saline",71 % of control
same,T/C,"dose: 120.0 mg/kg/injection, schedule: Q04DX003 (ip), vehicle: saline",52 % of control
COc1cc([C@@H]2c3cc4c(c(O)c3C[C@H]3COC(=O)[C@@H]32)OCO4)cc(OC)c1OC,T/C,"dose: 2.0 mg/kg/injection, schedule: Q01DX010 (sc), vehicle: saline",78 % of control
same,T/C,"dose: 4.0 mg/kg/injection, schedule: Q01DX010 (sc), vehicle: saline",56 % of control
CNc1nc(NC)nc(NC)n1,T/C,"dose: 25.0 mg/kg/injection, schedule: Q01DX010 (ip), vehicle: Klucel (hydroxypropylcellulose) (HPC)",164 % of control
same,T/C,"dose: 100.0 mg/kg/injection, schedule: Q01DX010 (ip), vehicle: Klucel (hydroxypropylcellulose) (HPC)",61 % of control
same,T/C,"dose: 100.0 mg/kg/injection, schedule: Q01DX010 (sc), vehicle: Klucel (hydroxypropylcellulose) (HPC)",93 % of control
same,T/C,"dose: 200.0 mg/kg/injection, schedule: Q01DX010 (ip), vehicle: Klucel (hydroxypropylcellulose) (HPC)",40 % of control
CCC/C=C/C=C/C(=O)OC1/C(=C/C(=O)OC)CC2CC(C(C)O)OC(=O)CC(O)CC3CC(OC(C)=O)C(C)(C)C(O)(CC4C/C(=C/C(=O)OC)CC(/C=C/C(C)(C)C1(O)O2)O4)O3 (stereo not drawn),T/C,"dose: 0.25 mg/kg/injection, schedule: Q04DX003 (sc), vehicle: saline + alcohol",103 % of control
same,T/C,"dose: 0.5 mg/kg/injection, schedule: Q04DX003 (sc), vehicle: saline + alcohol",111 % of control
same,T/C,"dose: 1.0 mg/kg/injection, schedule: Q04DX003 (sc), vehicle: saline + alcohol",70 % of control
same,T/C,"dose: 2.0 mg/kg/injection, schedule: Q04DX003 (sc), vehicle: saline + alcohol",60 % of control
CC(=O)OCC1OC(OC(C)=O)C(NC(=O)N(CCCl)N=O)C(OC(C)=O)C1OC(C)=O (stereo not drawn),T/C,"dose: 6.0 mg/kg/injection, schedule: Q04DX003 (sc), vehicle: Klucel (hydroxypropylcellulose) (HPC)",95 % of control
same,T/C,"dose: 24.0 mg/kg/injection, schedule: Q04DX003 (sc), vehicle: Klucel (hydroxypropylcellulose) (HPC)",77 % of control
Nc1ncnc2c1nnn2C1OC(CO)C(O)C1O (stereo not drawn),T/C,"dose: 18.75 mg/kg/injection, schedule: Q04DX003 (sc), vehicle: Klucel (hydroxypropylcellulose) (HPC)",76 % of control and 80 % of control
O=C(O)CCCc1ccc(N(CCCl)CCCl)cc1,T/C,"dose: 4.0 mg/kg/injection, schedule: Q01DX010 (sc), vehicle: saline with Tween-80",-6 % of control
same,T/C,"dose: 16.0 mg/kg/injection, schedule: Q01DX010 (sc), vehicle: saline with Tween-80",-65 % of control
CCCCOCN(COCCCC)C(C)Cc1ccccc1 (stereo not drawn),T/C,"dose: 200.0 mg/kg/injection, schedule: Q04DX003 (sc), vehicle: saline with Tween-80",70 % of control
same,T/C,"dose: 400.0 mg/kg/injection, schedule: Q04DX003 (sc), vehicle: saline with Tween-80",52 % of control
same,T/C,"dose: 800.0 mg/kg/injection, schedule: Q04DX003 (sc), vehicle: saline with Tween-80",66 % of control
COc1cccc2c1C(=O)c1c(O)c3c(c(O)c1C2=O)C[C@@](O)(/C(C)=N/NC(=O)c1ccc(Cl)cc1)C[C@@H]3OC1CC(N)C(O)C(C)O1 (stereo partly drawn),T/C,"dose: 1.0 mg/kg/injection, schedule: Q01DX010 (sc), vehicle: water",58 % of control
same,T/C,"dose: 4.0 mg/kg/injection, schedule: Q01DX010 (sc), vehicle: water",84 % of control and 109 % of control
same,T/C,"dose: 16.0 mg/kg/injection, schedule: Q01DX010 (sc), vehicle: water",49 % of control
CNC(=O)/C=C/C1=CN2C(=O)c3ccc(C)c(O)c3NC(OC)C2C1 (stereo not drawn),T/C,"dose: 0.2 mg/kg/injection, schedule: Q04DX003 (sc), vehicle: saline",82 % of control
same,T/C,"dose: 0.4 mg/kg/injection, schedule: Q04DX003 (ip), vehicle: saline",18 % of control and 21 % of control
same,T/C,"dose: 1.6 mg/kg/injection, schedule: Q04DX003 (sc), vehicle: saline",3 % of control
O=C(NO)c1ccc(O)c(O)c1,T/C,"dose: 200.0 mg/kg/injection, schedule: Q04DX003 (sc), vehicle: other",26 % of control
same,T/C,"dose: 200.0 mg/kg/injection, schedule: Q04DX003 (sc), vehicle: water",104 % of control
same,T/C,"dose: 400.0 mg/kg/injection, schedule: Q04DX003 (sc), vehicle: other",60 % of control
same,T/C,"dose: 400.0 mg/kg/injection, schedule: Q04DX003 (sc), vehicle: water",87 % of control
same,T/C,"dose: 800.0 mg/kg/injection, schedule: Q04DX003 (sc), vehicle: other",18 % of control
same,T/C,"dose: 800.0 mg/kg/injection, schedule: Q04DX003 (sc), vehicle: water",78 % of control
same,T/C,"dose: 1200.0 mg/kg/injection, schedule: Q04DX003 (sc), vehicle: distilled water + Tween-80",77 % of control
